Earlier results in patent US20120237590A1 (priority 2011, published 2012).

Columns and labels:
[1] = June 2005 to 2008; 27,996 exenatide and 16,276 sidagliptin users
Amyloid β = details: mice, 20 mg/kg gavage, 12 weeks

users who suffered acute pancreatitis [1]: 0.12%
SMILES: N[C@@H](CC(=O)N1CCn2c(nnc2C(F)(F)F)C1)Cc1cc(F)c(F)cc1F [Sitagliptin]
decrease of amyloid β levels and amyloid plaques (Amyloid β): about 50%
levels of incretin GLP-1 in the brain (Amyloid β): increased
